Type in all cases: functional, organism-based
Test [1] has as its system Tribolium castaneum. As to the kind of experiment: Antifeedant activity against larvae of Tribolium castaneum (red flour beetle) after 3 days.
For test [2], the system named is Sitophilus zeamais. As to the kind of experiment: Antifeedant activity against adult of Sitophilus zeamais after 3 days.
Test [3] relates to Tribolium castaneum. As to the kind of experiment: Antifeedant activity against adult of Tribolium castaneum (red flour beetle) after 3 days.

On to `C/C=C(\C)C(=O)O[C@H]1C[C@@H](OC(C)=O)[C@@]2(C(=O)OC)CO[C@H]3[C@@H](O)[C@@](C)([C@]45O[C@@]4(C)[C@@H]4C[C@H]5O[C@@H]5OC=C[C@@]54O)[C@H]4[C@]1(CO[C@]4(O)C(=O)OC)[C@@H]32` [AZADIRACHTIN A], for which the EC50 in test [1] was 47.9 ppm; in test [2], 91.7 ppm; in test [3], 57.6 ppm.
In the same order, the values of `CC(=O)O[C@@H]1C[C@H](O)[C@@]23CO[C@@H](O)[C@]1(C)[C@@H]2C[C@@H](O)[C@]1(C)[C@@H]3C(=O)[C@H](OC(C)=O)[C@@]2(C)[C@H](c3ccoc3)C[C@H]3O[C@]321` [TOOSENDANIN] are 48 ppm, 100 ppm and 66 ppm.

The record behind these values is ChEMBL document CHEMBL3046561, “Feeding deterrents from Dictamnus dasycarpus Turcz against two stored-product insects” (J Agric Food Chem, 2002).
